# Key:
# Type in all cases: in vivo, mouse
# [1] = system: endothelial progenitor cells (EPCs), double positive KDR+/CD34+ cells, in blood; test: Blood EPC levels by FACS after oral dosing in mice; settings: for Blood EPCs / Percent Blood EPCs: blood 6 h after final dose; for Blood EPCs Fold Increase Over Control / Percent Blood EPCs Fold Increase Over Control: vs vehicle control
# Method: (§1) To examine the effect of compounds and methods of the present invention on endothelial progenitor cell (EPC) mobilization and EPC levels, the following studies were performed. Male Swiss-Webster mice were administered various compounds of the present invention via oral gavage using a ball-tipped gavage needle. Animals treated by oral gavage received a 10 ml/kg volume of either 0.5% carboxymethyl cellulose (CMC) with 0.1% Polysorbate 80 (vehicle control) or various doses (10-100 mg/kg) of a compound of the present invention in 0.5% CMC with 0.1% Polysorbate 80. Animals were dosed once daily for 3 or 4 days. Six hours after the final dosing, 200 μl blood samples were collected for detection of EPCs by FACS analysis as previously described. (Vasa et al. (2001) Circ Res 89:e1-e7.) Briefly, mononuclear cells were isolated from whole blood samples by erythrocyte depletion using red blood cell lysis buffer (eBioscience) according to the manufacturer's instructions. The remaining cells were incubated for one hour with monoclonal antibodies directed against mouse CD34 and mouse KDR, cell surface markers for EPCs (BD Pharmingen). Following incubation with the anti-CD34 and anti-KDR monoclonal antibodies, the samples were washed three times with sort buffer (PBS, 1% fetal bovine serum) and resuspended in sort buffer containing 50 μg/ml of propidium iodide. Samples were then analyzed for the presence and quantitation of EPCs by flow cytometry (FACS Calibur, Becton Dickinson). The cytometer was set to acquire 10 000 events. Two or three samples obtained from each animal were analyzed and the average recorded. EPCs were determined as double positive KDR+/CD34+ cells.
# [2] = system: endothelial progenitor cells (EPCs), KDR+/CD34+ cells, in bone marrow; test: Bone marrow EPC levels by FACS after oral dosing in mice; settings: for Percent Bone Marrow EPCs: tibia bone marrow 6 h after final dose; for Percent Bone Marrow EPCs Fold Increase Over Control: vs vehicle control
# Method: as §1
# To examine the effect of compounds and methods of the present invention on EPC levels in bone marrow, the following studies were performed. Male Swiss-Webster mice were administered various compounds of the present invention via oral gavage using a ball-tipped gavage needle. Animals treated by oral gavage received a 10 ml/kg volume of either 0.5% carboxymethyl cellulose (CMC) with 0.1% Polysorbate 80 (vehicle control) or various doses (10-100 mg/kg) of a compound of the present invention in 0.5% CMC with 0.1% Polysorbate 80. Animals were dosed once daily for 3 or 4 days. Six hours after the final dosing, bone marrow samples were taken from one tibia of each animal and suspended in buffer (PBS with 1% fetal bovine serum). Bone marrow suspensions were then filtered through nylon filters to remove stromal cells. Following filtration, the remaining cells were counted manually using a hemocytometer. Detection and quantitation of EPCs was performed by FACS analysis as described above in Example 1.
# [3] = system: colony-forming unit-endothelial cells (CFU-EC) from blood; test: EPC colony forming assay (CFU-EC) ex vivo, blood of dosed mice; settings: for Blood CFU-EC: blood 6 h after final dose, 12 days culture; for Blood CFU-EC Fold Increase Over Control: vs vehicle control
# Method: To examine the effect of compounds and methods of the present invention on increasing EPCs, wherein the EPCs are functional EPCs, i.e., EPCs that are able to differentiate into mature endothelial cells, the following studies were performed in which the frequency of endothelial colony-forming cells was evaluated ex vivo. In one series of experiments, male Swiss-Webster mice were administered various compounds of the present invention via oral gavage using a ball-tipped gavage needle. Animals treated by oral gavage received a 10 ml/kg volume of either 0.5% carboxymethyl cellulose (CMC) with 0.1% Polysorbate 80 (vehicle control) or various doses (10-100 mg/kg) of a compound of the present invention in 0.5% CMC with 0.1% Polysorbate 80. Animals were dosed once daily for 3 or 4 days. Six hours after the final dosing, 200 μl blood samples were collected for analysis of EPC function and differentiation using an EPC colony forming assay. EPC colony forming assays were carried out as previously described. (Murphy et al. (2007) Arterioscler Thromb Vasc Biol 27:936-942.) Briefly, mononuclear cells were isolated from whole blood samples by erythrocyte depletion using red blood cell lysis buffer (eBioscience) according to the manufacturer's instructions. The remaining cells (50,000 cells/well) were plated on fibronectin coated 24-well dishes (BD, BioSciences Discovery Labware) and incubated in endothelial growth media (EGM-2 media, Cambrex) for 12 days. At the end the incubation period, EPC colonies were counted.
# [4] = system: colony-forming unit-endothelial cells (CFU-EC) from bone marrow; test: EPC colony forming assay (CFU-EC) ex vivo, bone marrow of dosed mice; settings: for Bone Marrow CFU-EC: tibia bone marrow 6 h after final dose, 12 days culture; for Bone Marrow CFU-EC Fold Increase Over Control: vs vehicle control
# Method: EPC colony forming assays were carried out as previously described. (Murphy et al. (2007) Arterioscler Thromb Vasc Biol 27:936-942.) Briefly, mononuclear cells were isolated from whole blood samples by erythrocyte depletion using red blood cell lysis buffer (eBioscience) according to the manufacturer's instructions. The remaining cells (50,000 cells/well) were plated on fibronectin coated 24-well dishes (BD, BioSciences Discovery Labware) and incubated in endothelial growth media (EGM-2 media, Cambrex) for 12 days. At the end the incubation period, EPC colonies were counted. In another series of experiments, male Swiss-Webster mice were administered various compounds of the present invention via oral gavage using a ball-tipped gavage needle. Animals treated by oral gavage received a 10 ml/kg volume of either 0.5% carboxymethyl cellulose (CMC) with 0.1% Polysorbate 80 (vehicle control) or various doses (10-100 mg/kg) of a compound of the present invention in 0.5% CMC with 0.1% Polysorbate 80. Animals were dosed once daily for 3 or 4 days. Six hours after the final dosing, bone marrow samples were taken from one tibia of each animal. Bone marrow samples were then analyzed for EPC function and differentiation using an EPC colony forming assay as described above.
# [5] = 20 mg/kg oral gavage once daily, 3 days
# [6] = 20 mg/kg oral gavage once daily, 4 days
# [7] = 60 mg/kg oral gavage once daily, 3 days
# [8] = 60 mg/kg oral gavage once daily, 4 days
structure (smiles),measurement,setting,value
"Cc1cccc(C)c1Oc1ccc2c(C#N)nc(C(=O)NCC(=O)O)c(O)c2c1 [Compound C, {[1-Cyano-6-(2,6-dimethyl-phenoxy)-4-hydroxy-isoquinoline-3-carbonyl]-amino}-acetic acid]",Blood EPCs,[1]; [5],151.9 cells/μl
same,Percent Blood EPCs,[1]; [5],1.3 % gated cells
same,Blood EPCs,[1]; [6],125.9 cells/μl
same,Percent Blood EPCs,[1]; [6],0.7 % gated cells
same,Blood EPCs Fold Increase Over Control,"[1]; 20 mg/kg oral, 3 days",4.2 fold
same,Percent Blood EPCs Fold Increase Over Control,"[1]; 20 mg/kg oral, 3 days",1.8 fold
same,Blood EPCs Fold Increase Over Control,"[1]; 20 mg/kg oral, 4 days",2.5 fold
same,Percent Blood EPCs Fold Increase Over Control,"[1]; 20 mg/kg oral, 4 days",1.0 fold
same,Blood EPCs,[1]; [7],195.1 cells/μl
same,Percent Blood EPCs,[1]; [7],1.4 % gated cells
same,Blood EPCs,[1]; [8],240.0 cells/μl
same,Percent Blood EPCs,[1]; [8],1.0 % gated cells
same,Blood EPCs Fold Increase Over Control,"[1]; 60 mg/kg oral, 3 days",5.4 fold
same,Percent Blood EPCs Fold Increase Over Control,"[1]; 60 mg/kg oral, 3 days",1.9 fold
same,Blood EPCs Fold Increase Over Control,"[1]; 60 mg/kg oral, 4 days",4.7 fold
same,Percent Blood EPCs Fold Increase Over Control,"[1]; 60 mg/kg oral, 4 days",1.3 fold
same,Percent Bone Marrow EPCs,[2]; [5],2.2 % gated cells
same,Percent Bone Marrow EPCs,[2]; [6],0.6 % gated cells
same,Percent Bone Marrow EPCs Fold Increase Over Control,"[2]; 20 mg/kg oral, 3 days",2.2 fold
same,Percent Bone Marrow EPCs Fold Increase Over Control,"[2]; 20 mg/kg oral, 4 days",0.9 fold
same,Percent Bone Marrow EPCs,[2]; [7],3.2 % gated cells
same,Percent Bone Marrow EPCs,[2]; [8],0.9 % gated cells
same,Percent Bone Marrow EPCs Fold Increase Over Control,"[2]; 60 mg/kg oral, 3 days",3.2 fold
same,Percent Bone Marrow EPCs Fold Increase Over Control,"[2]; 60 mg/kg oral, 4 days",1.4 fold
same,Blood CFU-EC,[3]; [5],"7.7 colonies/50,000 cells"
same,Blood CFU-EC,[3]; [6],"5.6 colonies/50,000 cells"
same,Blood CFU-EC Fold Increase Over Control,"[3]; 20 mg/kg oral, 3 days",4.3 fold
same,Blood CFU-EC Fold Increase Over Control,"[3]; 20 mg/kg oral, 4 days",4.3 fold
same,Blood CFU-EC,[3]; [7],"7.4 colonies/50,000 cells"
same,Blood CFU-EC,[3]; [8],"6.6 colonies/50,000 cells"
same,Blood CFU-EC Fold Increase Over Control,"[3]; 60 mg/kg oral, 3 days",4.14 fold
same,Blood CFU-EC Fold Increase Over Control,"[3]; 60 mg/kg oral, 4 days",5.1 fold
same,Bone Marrow CFU-EC,[4]; [5],"25.7 colonies/50,000 cells"
same,Bone Marrow CFU-EC,[4]; [6],"26.0 colonies/50,000 cells"
same,Bone Marrow CFU-EC Fold Increase Over Control,"[4]; 20 mg/kg oral, 3 days",5.1 fold
same,Bone Marrow CFU-EC Fold Increase Over Control,"[4]; 20 mg/kg oral, 4 days",1.9 fold
same,Bone Marrow CFU-EC,[4]; [7],"28.0 colonies/50,000 cells"
same,Bone Marrow CFU-EC,[4]; [8],"61.0 colonies/50,000 cells"
same,Bone Marrow CFU-EC Fold Increase Over Control,"[4]; 60 mg/kg oral, 3 days",5.6 fold
same,Bone Marrow CFU-EC Fold Increase Over Control,"[4]; 60 mg/kg oral, 4 days",4.5 fold

# — patent US20110039885A1, “METHODS FOR INCREASING ENDOTHELIAL PROGENITOR CELLS” (FibroGen, Inc., priority 2007, published 2011)
